# Values joined by “and” are separate entries in the source; they are usually repeats but may differ in a detail not shown here. Identical values can stand only once.
# Biological target: Protein disulfide-isomerase (Homo sapiens) (UniProt P07237)
# Assay: inhibition of PDI-mediated insulin reduction – biochemical, turbidity, absorbance, cherry-picked samples, set 2, dose response (AID 624274)
# Details: absorbance 650 nm
# Sequence of Protein disulfide-isomerase (Homo sapiens) (P07237 whole entry, looked up): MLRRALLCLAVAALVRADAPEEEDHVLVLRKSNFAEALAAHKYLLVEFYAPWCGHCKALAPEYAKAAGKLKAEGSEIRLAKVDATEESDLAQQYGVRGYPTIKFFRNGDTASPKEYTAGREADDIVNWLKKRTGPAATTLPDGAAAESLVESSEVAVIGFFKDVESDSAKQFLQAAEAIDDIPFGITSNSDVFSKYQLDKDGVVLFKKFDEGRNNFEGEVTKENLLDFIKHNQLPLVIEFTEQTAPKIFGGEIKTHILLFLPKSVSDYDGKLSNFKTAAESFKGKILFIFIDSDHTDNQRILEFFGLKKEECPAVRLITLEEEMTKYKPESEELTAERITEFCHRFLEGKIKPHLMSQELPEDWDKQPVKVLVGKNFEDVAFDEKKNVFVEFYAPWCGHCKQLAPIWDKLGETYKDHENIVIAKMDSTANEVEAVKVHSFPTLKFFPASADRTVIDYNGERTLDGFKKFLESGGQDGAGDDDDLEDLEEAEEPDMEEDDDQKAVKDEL
row,AC50,Compound
1,19.5 µM and 16.9 µM,Cc1noc(C)c1S(=O)(=O)Nc1ccc2c(c1)CC(=O)N([C@H](C)CO)C[C@H](C)[C@H](CN(C)S(=O)(=O)c1ccc(F)cc1)O2
2,10.2 µM,C[C@@H]1O[C@@H](O[C@@H]2C(=O)c3c(O)cc(O)cc3O[C@H]2c2ccc(O)c(O)c2)[C@H](O)[C@H](O)[C@H]1O
3,19.5 µM,COc1ccc(N2CCN(CC(=O)c3ccc(O)c(C)c3O)CC2)cc1
4,19.5 µM,O=C1NC[C@H](Cc2ccc(O)cc2)N(CC2CCCCC2)C1=O
